This note sets out measurements from US20130310379A1, “MODULATORS OF METHYL MODIFYING ENZYMES, COMPOSITIONS AND USES THEREOF” (CONSTELLATION PHARMACEUTICALS, priority 2010, published 2013).

The term IC50 denotes the concentration that inhibits the measured activity by half.

In the test the target is EZH2 (Homo sapiens, UniProt Q15910). Nature of the test: EZH2 assay: rPRC2 with biotinylated oligonucleosome substrates and 3H SAM, FlashPlate scintillation counting, IC50. It is filed as biochemical. The following applies: rPRC2, biotinylated oligonucleosome substrates, 3H SAM; read-out: EZH2 IC50. How it is done: Assays were carried out by mixing rPRC2 together with biotinylated oligonucleosome substrates in the presence of the radio-labeled enzyme co-factor, S-adenosyl-L-methionine (^3H SAM) (Perkin Elmer) and monitoring the enzymatically mediated transfer of tritiated methyl groups from ^3H SAM to histone lysine residues. The amount of resulting tritated methylhistone product was measured by first capturing the biotinylated oligonuclesomes in streptavidin (SAV) coated FlashPlates (Perkin Elmer), followed by a wash step to remove un-reacted ^3H SAM, and then counting on a TopCount NXT 384 well plate scintillation counter (Perkin Elmer). The final assay conditions for EZH2 were as follows: 50 mM Tris Buffer pH 8.5, 1 mM DTT, 69 uM Brij-35 detergent, 5.0 mM MgCl2, 0.1 mg/mL BSA, 0.2 uM ^3H SAM, 0.2 uM biotinylated oligonucleosomes, 3.6 uM H3K27me3 peptide and 2 nM EZH2.
Sequence of EZH2 (Q15910 whole entry): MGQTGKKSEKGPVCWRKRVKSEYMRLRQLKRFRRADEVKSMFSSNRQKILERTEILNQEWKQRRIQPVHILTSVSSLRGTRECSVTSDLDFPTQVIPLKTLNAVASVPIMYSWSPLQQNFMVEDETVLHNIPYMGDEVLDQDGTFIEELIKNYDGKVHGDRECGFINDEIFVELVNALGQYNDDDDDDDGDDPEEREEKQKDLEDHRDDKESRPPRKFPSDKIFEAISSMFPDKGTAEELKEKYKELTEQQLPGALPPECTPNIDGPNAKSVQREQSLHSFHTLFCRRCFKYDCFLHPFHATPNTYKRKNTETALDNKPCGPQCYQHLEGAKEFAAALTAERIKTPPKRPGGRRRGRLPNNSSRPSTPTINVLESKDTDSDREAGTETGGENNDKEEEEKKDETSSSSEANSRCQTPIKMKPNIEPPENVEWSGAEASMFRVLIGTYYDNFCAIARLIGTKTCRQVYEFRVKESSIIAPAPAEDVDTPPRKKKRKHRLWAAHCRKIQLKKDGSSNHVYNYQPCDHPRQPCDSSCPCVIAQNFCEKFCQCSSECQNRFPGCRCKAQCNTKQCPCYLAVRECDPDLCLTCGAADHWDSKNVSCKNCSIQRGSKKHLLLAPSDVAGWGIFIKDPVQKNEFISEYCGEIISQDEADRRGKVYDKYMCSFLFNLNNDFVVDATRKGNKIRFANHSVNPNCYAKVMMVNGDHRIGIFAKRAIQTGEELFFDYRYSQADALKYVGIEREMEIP
Sequence of EZH2 (O75530 whole entry partner): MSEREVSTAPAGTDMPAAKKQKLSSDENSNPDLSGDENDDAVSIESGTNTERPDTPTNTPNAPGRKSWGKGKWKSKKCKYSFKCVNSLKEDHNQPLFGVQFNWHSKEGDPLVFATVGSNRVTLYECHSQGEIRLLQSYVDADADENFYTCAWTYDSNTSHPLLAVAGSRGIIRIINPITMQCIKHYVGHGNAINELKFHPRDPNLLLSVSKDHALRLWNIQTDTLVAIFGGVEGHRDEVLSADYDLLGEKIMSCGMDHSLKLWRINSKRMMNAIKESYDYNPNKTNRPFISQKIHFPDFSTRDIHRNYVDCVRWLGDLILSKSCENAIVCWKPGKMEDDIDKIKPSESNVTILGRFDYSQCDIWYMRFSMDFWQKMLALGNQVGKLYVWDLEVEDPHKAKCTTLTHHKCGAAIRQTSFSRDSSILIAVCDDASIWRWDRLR
Sequence of EZH2 (Q15022 whole entry partner): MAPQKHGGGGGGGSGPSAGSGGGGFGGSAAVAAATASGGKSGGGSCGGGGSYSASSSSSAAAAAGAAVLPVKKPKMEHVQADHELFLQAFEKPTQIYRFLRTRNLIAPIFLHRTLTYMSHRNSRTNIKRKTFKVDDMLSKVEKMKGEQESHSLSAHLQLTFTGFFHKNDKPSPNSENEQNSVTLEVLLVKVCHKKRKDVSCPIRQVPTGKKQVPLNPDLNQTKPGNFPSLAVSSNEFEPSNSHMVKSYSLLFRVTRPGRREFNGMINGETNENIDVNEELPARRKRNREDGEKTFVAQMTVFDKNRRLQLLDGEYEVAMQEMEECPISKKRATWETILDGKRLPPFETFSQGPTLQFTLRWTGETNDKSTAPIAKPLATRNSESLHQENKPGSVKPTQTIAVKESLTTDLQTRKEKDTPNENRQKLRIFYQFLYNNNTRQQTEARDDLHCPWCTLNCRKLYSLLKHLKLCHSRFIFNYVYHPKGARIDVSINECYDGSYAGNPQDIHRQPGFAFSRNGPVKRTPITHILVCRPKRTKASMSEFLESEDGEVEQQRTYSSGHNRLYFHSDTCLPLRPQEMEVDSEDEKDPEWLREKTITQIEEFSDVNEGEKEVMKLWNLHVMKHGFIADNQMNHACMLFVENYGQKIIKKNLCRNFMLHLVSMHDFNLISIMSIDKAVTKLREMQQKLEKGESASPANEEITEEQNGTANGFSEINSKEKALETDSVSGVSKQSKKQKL
Compound IC50 measurements were obtained as follows: Compounds were first dissolved in 100% DMSO as 10 mM stock solutions. […] A 12.5 uL volume of the HMT enzyme, H3K27me3 peptide and oligonucleosome substrate in assay buffer was added to each well of the assay plate using a Multidrop Combi (ThermoFisher). Compounds were pre-incubated with the enzyme for 20 min, followed by initiation of the methyltransferase reaction by addition of 12.5 uL of 3H SAM in assay buffer (final volume=25 uL). The final concentrations of compounds ranged from a top default concentration of 80 uM down to 0.16 uM in ten 2-fold dilution steps. Reactions were carried out for 60 minutes and quenched with 20 uL per well of 1.96 mM SAH, 50 mM Tris PH 8.5, 200 mM EDTA. Stopped reactions were transferred to SAV coated Flashplates (Perkin Elmer), incubated for 120 min, washed with a plate washer, and then read on the TopCount NXT (1.0 min/well) to measure the amount of methylhistone product formed during the reaction. The amount of methylhistone product was compared with the amount of product formed in the 0% and 100% inhibition control wells allowing the calculation of % Inhibition in the presence of the individual compounds at various concentrations. IC50's were computed using a 4 parameter fit non-linear curve fitting software package (XLFIT, part of the database package, ActivityBase (IDBS)) where the four parameters were IC50, Hill slope, pre-transitional baseline (0% INH), and post-transitional baseline (100% INH); with the latter two parameters being fixed to zero and 100%, respectively, by default.
For the compound `CC1(C)CC(NC(=O)c2ccc(Oc3ccccn3)cc2)CC(C)(C)N1` [Compound I-56], the IC50 lay in the range of 20 to 80 µM.
The value for `COc1ccccc1Oc1ccc(C(=O)NC2CC(C)(C)NC(C)(C)C2)cc1` [Compound I-57] was 20 to 80 µM; that for `Cc1ncccc1-c1cccc(OCc2ccc(C(=O)NC3CC(C)(C)NC(C)(C)C3)cc2)c1` [Compound I-58] was 20 to 80 µM; that for `CC1(C)CC(NC(=O)c2ccc(COc3cccc(F)c3)cc2)CC(C)(C)N1` [Compound I-59] was 20 to 80 µM.
Turning to `Cc1cccc(Oc2ccc(C(=O)NC3CC(C)(C)NC(C)(C)C3)cc2)c1` [Compound I-60], the IC50 lay within 20 to 80 µM.
Regarding `CC1(C)CC(NC(=O)c2ccc(-c3ccccc3)cc2)CC(C)(C)N1` [Compound I-61], the IC50 was in the range of 20 to 80 µM.
As for `CC1(C)CC(NC(=O)c2ccc(COCc3ccccc3)cc2)CC(C)(C)N1` [Compound I-62], the figure is 20 to 80 µM.
As for `COc1ccc(OCc2ccc(C(=O)NC3CC(C)(C)NC(C)(C)C3)cc2)cc1` [Compound I-63], the figure is 20 to 80 µM; as for `CC1(C)CC(NC(=O)c2ccc(Oc3ccccc3)nc2)CC(C)(C)N1` [Compound I-64, 6-Phenoxy-N-(2,2,6,6-tetramethylpiperidin-4-yl)nicotinamide], 20 to 80 µM; as for `CC1(C)CC(NC(=O)c2ccc(COc3cccc(-c4ccc(=O)[nH]c4)c3)cc2)CC(C)(C)N1` [Compound I-65], 20 to 80 µM.
The value for `CC1(C)CC(NC(=O)c2ccc(COc3ccnc(Cl)c3)cc2)CC(C)(C)N1` [Compound I-66] was 20 to 80 µM; that for `CC1(C)CC(NC(=O)c2ccc(COc3ccc(C#N)cc3)cc2)CC(C)(C)N1` [Compound I-67] was 20 to 80 µM.
For the compound `CC1(C)CC(NC(=O)c2ccc(Oc3ccc(I)cn3)cc2)CC(C)(C)N1` [Compound I-68, 4-(5-Iodopyridin-2-yloxy)-N-(2,2,6,6-tetramethylpiperidin-4-yl)benzamide], the IC50 is over 80 µM.
As for `Cc1cccc(C)c1Oc1ccc(C(=O)NC2CC(C)(C)NC(C)(C)C2)cc1` [Compound I-69], the figure is over 80 µM.
In the case of `Cc1ccc(OCc2ccc(C(=O)NC3CC(C)(C)NC(C)(C)C3)cc2)nc1` [Compound I-70], the IC50 is over 80 µM.
As for `COc1cccc(Oc2ccc(C(=O)NC3CC(C)(C)NC(C)(C)C3)cc2)c1` [Compound I-71], the figure is over 80 µM.
As for `CN1CCC(N(C)C(=O)c2ccc(Oc3ccccc3)cc2)CC1` [Compound I-72], the figure is over 80 µM; as for `CC1(C)CC(NC(=O)c2ccc(Oc3ccc([N+](=O)[O-])cc3)cc2)CC(C)(C)N1` [Compound I-73], over 80 µM; as for `Cc1ccccc1OCc1ccc(C(=O)NC2CC(C)(C)NC(C)(C)C2)cc1` [Compound I-74], over 80 µM.
For `CC1(C)CC(NC(=O)c2ccc(OCc3ccccc3)cc2)CC(C)(C)N1` [Compound I-75], the IC50 is over 80 µM.
Take `CC1(C)CC(NC(=O)c2ccc(COc3cccc(C#N)c3)cc2)CC(C)(C)N1` [Compound I-76]: the IC50 was over 80 µM.
The value for `CC1(C)CC(NC(=O)c2ccc(COc3cccnc3Cl)cc2)CC(C)(C)N1` [Compound I-77] was over 80 µM; that for `CC1(C)CC(NC(=O)c2ccc(Oc3cnccn3)cc2)CC(C)(C)N1` [Compound I-78] was over 80 µM.
As for `CC1(C)CC(NC(=O)c2ccc(Oc3ncccn3)cc2)CC(C)(C)N1` [Compound I-79], the figure is over 80 µM.
The value for `CC1(C)CC(NC(=O)c2ccc(COc3ccccn3)cc2)CC(C)(C)N1` [Compound I-80] was over 80 µM; that for `CC1(C)CC(NC(=O)c2ccc(OCc3ccc([N+](=O)[O-])cc3)cc2)CC(C)(C)N1` [Compound I-81] was over 80 µM; that for `CC1(C)CC(NC(=O)c2ccc(Oc3ccc4[nH]ccc4c3)cc2)CC(C)(C)N1` [Compound I-82] was over 80 µM.
Consider `CC1(C)CC(NC(=O)c2ccc(CSc3ccccc3)cc2)CC(C)(C)N1` [Compound I-83], for which the IC50 is over 80 µM.
